≈ marks a conversion by molar mass, not a printed value. Where two headings read alike, the source gives them in different places.
Columns and labels:
[1] = High-throughput equilibrium solubility at pH 6.8; type: physicochemical; conditions: pH 6.8, aqueous buffer, thermodynamic from solid; read-out: HT-Eq Sol/pH 6.8
Procedure, shortened: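 Following the procedure of Zhou et al. (2007), compound solubility was determined at pH 6.8.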

[2] = biological target: T1, PI3K alfa (Homo sapiens, UniProt P42336); experiment: PI3K alpha kinase assay (Kinase-Glo luminescence); type: biochemical
T1 construct: His tag (C); made in house; host or cells: baculovirus BV1075; Tn5 (Trichoplusia ni) or TiniPro insect cells
T1 sequence (P42336 with tags, fused parts or gaps limits assumed): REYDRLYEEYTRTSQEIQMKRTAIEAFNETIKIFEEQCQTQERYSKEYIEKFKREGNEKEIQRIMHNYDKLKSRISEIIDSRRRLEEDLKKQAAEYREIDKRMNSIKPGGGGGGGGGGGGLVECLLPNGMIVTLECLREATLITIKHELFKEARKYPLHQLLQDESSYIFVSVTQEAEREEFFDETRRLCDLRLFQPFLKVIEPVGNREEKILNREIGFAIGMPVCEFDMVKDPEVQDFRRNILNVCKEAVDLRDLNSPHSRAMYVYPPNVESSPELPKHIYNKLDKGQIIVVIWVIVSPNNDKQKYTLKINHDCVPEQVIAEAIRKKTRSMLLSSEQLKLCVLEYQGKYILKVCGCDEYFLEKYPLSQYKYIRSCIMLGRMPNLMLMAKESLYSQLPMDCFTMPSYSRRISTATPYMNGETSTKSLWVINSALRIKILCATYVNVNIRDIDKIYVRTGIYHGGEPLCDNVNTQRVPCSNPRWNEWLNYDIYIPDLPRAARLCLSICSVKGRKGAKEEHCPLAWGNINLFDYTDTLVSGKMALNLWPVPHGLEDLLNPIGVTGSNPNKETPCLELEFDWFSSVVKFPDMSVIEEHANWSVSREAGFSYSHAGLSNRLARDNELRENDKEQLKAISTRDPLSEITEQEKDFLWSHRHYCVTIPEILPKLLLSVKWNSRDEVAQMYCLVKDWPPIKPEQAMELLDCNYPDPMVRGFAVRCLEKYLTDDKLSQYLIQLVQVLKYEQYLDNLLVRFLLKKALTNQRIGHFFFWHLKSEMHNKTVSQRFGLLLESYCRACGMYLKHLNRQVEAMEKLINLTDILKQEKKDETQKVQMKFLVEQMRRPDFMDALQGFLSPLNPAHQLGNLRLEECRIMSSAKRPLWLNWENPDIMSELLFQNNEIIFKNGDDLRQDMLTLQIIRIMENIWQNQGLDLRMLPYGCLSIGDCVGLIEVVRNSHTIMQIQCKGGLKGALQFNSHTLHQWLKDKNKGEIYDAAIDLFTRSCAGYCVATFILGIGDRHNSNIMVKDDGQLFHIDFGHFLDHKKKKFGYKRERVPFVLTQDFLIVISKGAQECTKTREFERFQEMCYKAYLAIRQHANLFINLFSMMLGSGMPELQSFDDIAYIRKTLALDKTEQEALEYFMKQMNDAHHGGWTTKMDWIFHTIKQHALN
Procedure, shortened: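 IC50 values come from a four-parameter logistic fit of percent inhibition at eight concentrations, typically 10 to 0.003 μM. Recombinant PI3Kα at 10 nM turned over 1 μM ATP with 10 μg/mL PI for 60 min at room temperature, and residual ATP was measured by Kinase-Glo.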

[3] = biological target: T2, PI3K beta (Homo sapiens, UniProt P42338); experiment: PI3K beta kinase assay (Kinase-Glo luminescence); type: biochemical
T2 construct: for the full-length p110-b subunit are generated and fused by overlapping PCR; His tag (C); made in house; host or cells: baculovirus BV949; Tn5 (Trichoplusia ni) or TiniPro insect cells
T2 sequence (P42338 with tags, fused parts or gaps limits assumed): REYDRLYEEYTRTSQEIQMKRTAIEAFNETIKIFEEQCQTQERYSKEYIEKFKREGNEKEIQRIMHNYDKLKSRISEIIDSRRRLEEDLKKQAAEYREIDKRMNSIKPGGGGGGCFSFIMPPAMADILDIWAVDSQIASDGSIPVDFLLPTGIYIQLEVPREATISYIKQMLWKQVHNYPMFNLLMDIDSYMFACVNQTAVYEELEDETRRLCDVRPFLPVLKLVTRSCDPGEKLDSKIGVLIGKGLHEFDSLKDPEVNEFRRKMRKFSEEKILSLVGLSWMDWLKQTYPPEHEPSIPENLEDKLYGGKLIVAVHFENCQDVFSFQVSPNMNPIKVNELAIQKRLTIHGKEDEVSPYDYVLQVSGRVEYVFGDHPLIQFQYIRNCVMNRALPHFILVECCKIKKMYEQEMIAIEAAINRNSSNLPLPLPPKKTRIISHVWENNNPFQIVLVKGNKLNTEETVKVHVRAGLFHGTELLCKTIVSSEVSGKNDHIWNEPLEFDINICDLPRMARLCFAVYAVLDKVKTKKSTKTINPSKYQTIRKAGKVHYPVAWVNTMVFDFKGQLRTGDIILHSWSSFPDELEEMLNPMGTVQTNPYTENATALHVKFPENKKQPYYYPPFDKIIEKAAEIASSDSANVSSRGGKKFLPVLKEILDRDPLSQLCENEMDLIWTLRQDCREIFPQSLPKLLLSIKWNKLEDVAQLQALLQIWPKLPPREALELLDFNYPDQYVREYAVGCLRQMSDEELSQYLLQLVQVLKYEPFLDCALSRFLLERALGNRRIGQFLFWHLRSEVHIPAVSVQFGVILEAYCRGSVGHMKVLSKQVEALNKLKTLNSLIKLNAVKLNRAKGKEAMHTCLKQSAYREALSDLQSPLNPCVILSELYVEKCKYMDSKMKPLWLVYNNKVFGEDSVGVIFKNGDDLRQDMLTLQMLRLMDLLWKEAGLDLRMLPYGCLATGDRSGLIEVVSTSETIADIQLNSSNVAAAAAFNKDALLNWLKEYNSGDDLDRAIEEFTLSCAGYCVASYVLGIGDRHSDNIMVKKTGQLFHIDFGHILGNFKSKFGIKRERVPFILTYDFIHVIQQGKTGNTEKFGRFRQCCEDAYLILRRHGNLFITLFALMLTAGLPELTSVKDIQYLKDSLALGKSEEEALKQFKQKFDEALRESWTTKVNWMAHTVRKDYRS
Procedure, shortened: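 Kinase-Glo luminescence read out ATP left after a 60-min room-temperature reaction, started with ATP (1 μM final) on 25 nM His-tagged p85 iSH2–p110β (BV949) plus 10 μg/mL PI substrate in pH 7.5 Tris buffer. Percent inhibition at eight concentrations was fitted to a four-parameter logistic model for IC50.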

Structure (SMILES)	solubility thermodynamic [1] [mg/mL]	IC50 ([2]; read-out: EPK_PI3Kalfa/IC50) [µM]	IC50 ([3]; read-out: EPK_PI3Kbeta/IC50) [µM]	IC50 ([2]; read-out: PI3Kalfa/IC50) [µM]	IC50 ([3]; read-out: PI3Kbeta/IC50) [µM]
CCOc1cc(-c2ccc3ncc4c(c3c2)n(-c2ccc(OCCOC)nc2C)c(=O)n4C)cnc1COC [Example 22.1, 8-(5-Ethoxy-6-methoxymethyl-pyridin-3-yl)-1-[6-(2-methoxy-ethoxy)-2-methyl-pyridin-3-yl]-3-methyl-1,3-dihydro-imidazo[4,5-c]quinolin-2-one]	0.007 (≈ 13.2 µM)	0.188	0.429	–	–
CCOc1ncc(-c2ccc3ncc4c(c3c2)n(-c2cccnc2C)c(=O)n4C)cn1 [Example 2.5, 8-(2-Ethoxy-pyrimidin-5-yl)-3-methyl-1-(2-methyl-pyridin-3-yl)-1,3-dihydro-imidazo[4,5-c]quinolin-2-one]	0.048 (≈ 116 µM)	–	–	0.119	0.749
COc1nc(N2CCNCC2)ccc1-n1c(=O)n(C)c2cnc3ccc(-c4cnc(N)c(C(F)(F)F)c4)cc3c21 [Example 9.2, 8-(6-Amino-5-trifluoromethyl-pyridin-3-yl)-1-(2-methoxy-6-piperazin-1-yl-pyridin-3-yl)-3-methyl-1,3-dihydro-imidazo[4,5-c]quinolin-2-one]	0.013 (≈ 23.6 µM)	–	–	0.018	0.036
Cc1cccnc1-n1c(=O)n(C)c2cnc3ccc(-c4cnc(N)c(C(F)(F)F)c4)cc3c21 [Example 3.12, 8-(6-Amino-5-trifluoromethyl-pyridin-3-yl)-3-methyl-1-(3-methyl-pyridin-2-yl)-1,3-dihydro-imidazo[4,5-c]quinolin-2-one]	0.012 (≈ 26.6 µM)	–	–	0.016	0.109
COc1ccc(-c2ccc3ncc4c(c3c2)n(-c2cccnc2C)c(=O)n4C)cn1 [Example 2.12, 8-(6-Methoxy-pyridin-3-yl)-3-methyl-1-(2-methyl-pyridin-3-yl)-1,3-dihydro-imidazo[4,5-c]quinolin-2-one]	0.027 (≈ 67.9 µM)	–	–	0.026	0.132
COc1ncccc1-n1c(=O)n(C)c2cnc3ccc(-c4cnc5[nH]ccc5c4)cc3c21 [Example 1.2, 1-(2-Methoxy-pyridin-3-yl)-3-methyl-8-(1H-pyrrolo[2,3-b]pyridin-5-yl)-1,3-dihydro-imidazo[4,5-c]quinolin-2-one]	0.003 (≈ 7.1 µM)	–	–	0.015	0.115

Further lines, results first:

solubility thermodynamic [1] [mg/mL]	IC50 ([2]; read-out: EPK_PI3Kalfa/IC50) [µM]	IC50 ([3]; read-out: EPK_PI3Kbeta/IC50) [µM]	IC50 ([2]; read-out: PI3Kalfa/IC50) [µM]	IC50 ([3]; read-out: PI3Kbeta/IC50) [µM]	Structure (SMILES)
0.003 (≈ 6.09 µM)	0.002	0.025	–	–	Cc1nc(C(C)(C)O)ccc1-n1c(=O)n(C)c2cnc3ccc(-c4cncc(C(C)(C)C#N)c4)cc3c21 [Example 31.6, 2-(5-{1-[6-(1-Hydroxy-1-methyl-ethyl)-2-methyl-pyridin-3-yl]-3-methyl-2-oxo-2,3-dihydro-1H-imidazo[4,5-c]quinolin-8-yl}-pyridin-3-yl)-2-methyl-propionitrile]
0.056 (≈ 115 µM)	0.04	0.301	–	–	CNc1ncc(-c2ccc3ncc4c(c3c2)n(-c2ccc(N3CC(O)C3)nc2C)c(=O)n4C)cc1F [Example 29.3, 8-(5-Fluoro-6-methylamino-pyridin-3-yl)-1-[6-(3-hydroxy-azetidin-1-yl)-2-methyl-pyridin-3-yl]-3-methyl-1,3-dihydro-imidazo[4,5-c]quinolin-2-one]
0.049 (≈ 89.2 µM)	0.009	0.037	–	–	CNc1ncc(-c2ccc3ncc4c(c3c2)n(-c2ccc(N3CC[C@H](O)C3)nc2C)c(=O)n4C)cc1C(F)(F)F [Example 32.5, 1-[6-((S)-3-Hydroxy-pyrrolidin-1-yl)-2-methyl-pyridin-3-yl]-3-methyl-8-(6-methylamino-5-trifluoromethyl-pyridin-3-yl)-1,3-dihydro-imidazo[4,5-c]quinolin-2-one]
0.009 (≈ 19.9 µM)	0.027	0.441	–	–	CNc1ccc(-c2ccc3ncc4c(c3c2)n(-c2ccc(N3CCC3)nc2C)c(=O)n4C)cn1 [Example 23.4, 1-(6-Azetidin-1-yl-2-methyl-pyridin-3-yl)-3-methyl-8-(6-methylamino-pyridin-3-yl)-1,3-dihydro-imidazo[4,5-c]quinolin-2-one]

From US20100311714A1, “1H-IMIDAZO[4,5-c]QUINOLINONE COMPOUNDS” (priority 2009, published 2010)
